The target of assay [1] is human TASK-3 (Homo sapiens, UniProt Q9NPC2). The assay can be described thus: Inhibition of recombinant TASK-3 in stably transfected CHO cells, KCl-induced depolarization, voltage-sensitive dye (B-2). The class given is cell-based. Further details: expressed in transfected cells; host or cells: stably transfected CHO cells. To be noted: depolarization induced by 40 mM potassium chloride, some mean values from multiple determinations. In outline: (§1)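 Stably transfected CHO cells loaded with a voltage-sensitive membrane potential dye. Depolarization was induced with 40 mM KCl, and compound inhibition of it was read by fluorescence. IC50 is the concentration blocking half of the KCl-induced depolarization; some values are means of multiple independent determinations.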
Chain of human TASK-3 (Q9NPC2 whole entry): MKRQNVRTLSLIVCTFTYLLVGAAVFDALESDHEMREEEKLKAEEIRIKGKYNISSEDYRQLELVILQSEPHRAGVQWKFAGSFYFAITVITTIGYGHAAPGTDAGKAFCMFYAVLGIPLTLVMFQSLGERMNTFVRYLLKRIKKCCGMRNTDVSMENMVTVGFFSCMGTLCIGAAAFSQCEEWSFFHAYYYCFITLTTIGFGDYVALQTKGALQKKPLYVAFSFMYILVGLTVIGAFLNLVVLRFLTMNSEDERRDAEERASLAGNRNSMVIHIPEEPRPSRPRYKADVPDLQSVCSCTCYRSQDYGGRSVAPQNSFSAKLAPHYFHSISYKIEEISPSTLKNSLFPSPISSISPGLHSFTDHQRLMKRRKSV

In assay [2] the target is human TASK-1 (Homo sapiens, UniProt O14649). The assay can be described thus: Inhibition of recombinant TASK-1 in stably transfected CHO cells, KCl-induced depolarization, voltage-sensitive dye (B-2). It is filed as cell-based. Further details: expressed in transfected cells; host or cells: stably transfected CHO cells. To be noted: depolarization induced by 40 mM potassium chloride, some mean values from multiple determinations. An outline of the steps:
as §1

For 26 compounds, IC50 results are on record in patent publication US20210024545A1, “SUBSTITUTED DIAZAHETERO-BICYCLIC COMPOUNDS AND THEIR USE” (Bayer Aktiengesellschaft, priority 2016, published 2021).

For orientation: IC50 means the point on the concentration scale where inhibition reaches its midpoint.

Chain of human TASK-1 (O14649 whole entry): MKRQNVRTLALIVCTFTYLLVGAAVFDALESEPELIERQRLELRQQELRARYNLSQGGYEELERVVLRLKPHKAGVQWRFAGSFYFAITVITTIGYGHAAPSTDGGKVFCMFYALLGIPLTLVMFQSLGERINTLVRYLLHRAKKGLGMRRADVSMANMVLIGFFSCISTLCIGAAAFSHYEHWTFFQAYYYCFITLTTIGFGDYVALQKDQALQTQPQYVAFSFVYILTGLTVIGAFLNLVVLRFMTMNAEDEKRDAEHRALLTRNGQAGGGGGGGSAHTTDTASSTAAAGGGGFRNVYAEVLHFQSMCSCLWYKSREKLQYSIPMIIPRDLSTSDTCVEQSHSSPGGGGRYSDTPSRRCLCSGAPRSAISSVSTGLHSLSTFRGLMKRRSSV

For `Cc1ccc(C)c(NC(=O)N2C3CCC2CN(Cc2c(-c4ccc(Cl)cc4)nc4ccccn24)C3)c1` [Example 163, 3-{[2-(4-Chlorophenyl)imidazo[1,2-a]pyridin-3-yl]methyl}-N-(2,5-dimethylphenyl)-3,8-diazabicyclo[3.2.1]octane-8-carboxamide], the IC50 in assay [1] amounted to 160 nM; in assay [2], 1400 nM.

As for `O=C(NC1CCCCC1)N1C2CCC1CN(Cc1c(-c3ccc(Cl)cc3)nc3ccccn13)C2` [Example 164, 3-{[2-(4-Chlorophenyl)imidazo[1,2-a]pyridin-3-yl]methyl}-N-cyclohexyl-3,8-diazabicyclo[3.2.1]octane-8-carboxamide], the IC50 in assay [1] came to 1000 nM; in assay [2], 3100 nM.

In the case of `O=C(Nc1c(F)cccc1F)N1C2CCC1CN(Cc1c(-c3ccc(Cl)cc3)nc3ccccn13)C2` [Example 166, 3-{[2-(4-Chlorophenyl)imidazo[1,2-a]pyridin-3-yl]methyl}-N-(2,6-difluorophenyl)-3,8-diazabicyclo[3.2.1]octane-8-carboxamide], the IC50 in assay [1] came to 44 nM; in assay [2], 990 nM.

As for `Cc1ccc(NC(=O)N2C3CCC2CN(Cc2c(-c4ccc(Cl)cc4)nc4ccccn24)C3)c(C)c1` [Example 167, 3-{[2-(4-Chlorophenyl)imidazo[1,2-a]pyridin-3-yl]methyl}-N-(2,4-dimethylphenyl)-3,8-diazabicyclo[3.2.1]octane-8-carboxamide], the IC50 in assay [1] came out at 350 nM; in assay [2] it was 3000 nM.

As to `CC(C)NC(=O)N1C2COCC1CN(Cc1c(-c3ccc(Cl)cc3)nc3ccccn13)C2` [Example 168, 7-{[2-(4-Chlorophenyl)imidazo[1,2-a]pyridin-3-yl]methyl}-N-isopropyl-3-oxa-7,9-diazabicyclo[3.3.1]nonane-9-carboxamide], the figures for the concentration for half-maximal inhibition (IC50) in assay [1] and in assay [2] were 130 nM and 1400 nM, respectively.

In the case of `Cc1cccc(Cl)c1NC(=O)N1C2COCC1CN(Cc1c(-c3ccc(Cl)cc3)nc3ccccn13)C2` [Example 169, N-(2-Chloro-6-methylphenyl)-7-{[2-(4-chlorophenyl)imidazo[1,2-a]pyridin-3-yl]methyl}-3-oxa-7,9-diazabicyclo[3.3.1]nonane-9-carboxamide], the IC50 in assay [1] was determined as 110 nM; in assay [2], 3600 nM.

Consider `O=C(NC1CC1)N1C2CCC1CN(Cc1c(-c3ccc(Cl)cc3)nc3ccccn13)C2` [Example 170, 3-{[2-(4-Chlorophenyl)imidazo[1,2-a]pyridin-3-yl]methyl}-N-cyclopropyl-3,8-diazabicyclo[3.2.1]octane-8-carboxamide], for which the IC50 in assay [1] turned out to be 64 nM; in assay [2], 1200 nM.

On to `O=C(Nc1ccccc1Cl)N1C2CCC1CN(Cc1c(-c3ccc(Cl)cc3)nc3ccccn13)C2` [Example 171, N-(2-Chlorophenyl)-3-{[2-(4-chlorophenyl)imidazo[1,2-a]pyridin-3-yl]methyl}-3,8-diazabicyclo[3.2.1]octane-8-carboxamide], for which the figures for the IC50 in assay [1] and in assay [2] were 26 nM and 1800 nM, respectively.

`CN(C(=O)N1C2CCC1CN(Cc1c(-c3ccc(Cl)cc3)nc3ccccn13)C2)c1ccccc1` [Example 172, 3-{[2-(4-Chlorophenyl)imidazo[1,2-a]pyridin-3-yl]methyl}-N-methyl-N-phenyl-3,8-diazabicyclo[3.2.1]octane-8-carboxamide]: the IC50 in assay [1] turned out to be 80 nM; in assay [2] it was 5200 nM.

On to `O=C(N1CCOCC1)N1C2CCC1CN(Cc1c(-c3ccc(Cl)cc3)nc3ccccn13)C2` [Example 173, (3-{[2-(4-Chlorophenyl)imidazo[1,2-a]pyridin-3-yl]methyl}-3,8-diazabicyclo[3.2.1]oct-8-yl)(morpholin-4-yl)methanone], for which the values for the IC50 in assay [1] and in assay [2] were 32 nM and 1700 nM, respectively.

For `CC(C)N(C(=O)N1C2CCC1CN(Cc1c(-c3ccc(Cl)cc3)nc3ccccn13)C2)C(C)C` [Example 174, 3-{[2-(4-Chlorophenyl)imidazo[1,2-a]pyridin-3-yl]methyl}-N,N-diisopropyl-3,8-diazabicyclo[3.2.1]octane-8-carboxamide], the IC50 in assay [1] came out at 13 nM; in assay [2], 91 nM.

`CCN(C(=O)N1C2CCC1CN(Cc1c(-c3ccc(Cl)cc3)nc3ccccn13)C2)C1CCCCC1` [Example 175, 3-{[2-(4-Chlorophenyl)imidazo[1,2-a]pyridin-3-yl]methyl}-N-cyclohexyl-N-ethyl-3,8-diazabicyclo[3.2.1]octane-8-carboxamide]: the IC50 in assay [1] was found to be 200 nM; in assay [2], 43 nM.

Consider `O=C(N1CCCC1)N1C2CCC1CN(Cc1c(-c3ccc(Cl)cc3)nc3ccccn13)C2` [Example 176, (3-([2-(4-Chlorophenyl)imidazo[1,2-a]pyridin-3-yl]methyl}-3,8-diazabicyclo[3.2.1]oct-8-yl)(pyrrolidin-1-yl)methanone], for which the IC50 in assay [1] worked out at 10 nM; in assay [2] it was 49 nM.

Regarding `CCN(C(=O)N1C2CCC1CN(Cc1c(-c3ccc(Cl)cc3)nc3ccccn13)C2)c1ccccc1` [Example 177, 3-{[2-(4-Chlorophenyl)imidazo[1,2-a]pyridin-3-yl]methyl}-N-ethyl-N-phenyl-3,8-diazabicyclo[3.2.1]octane-8-carboxamide], the IC50 worked out at 130 nM in assay [1] and 4000 nM in assay [2].

On to `CC(C)N(C)C(=O)N1C2CCC1CN(Cc1c(-c3ccc(Cl)cc3)nc3ccccn13)C2` [Example 178, 3-{[2-(4-Chlorophenyl)imidazo[1,2-a]pyridin-3-yl]methyl}-N-isopropyl-N-methyl-3,8-diazabicyclo[3.2.1]octane-8-carboxamide], for which the IC50 in assay [1] amounted to 17 nM; in assay [2], 290 nM.

For `O=C(N1CCCCC1)N1C2CCC1CN(Cc1c(-c3ccc(Cl)cc3)nc3ccccn13)C2` [Example 179, (3-{[2-(4-Chlorophenyl)imidazo[1,2-a]pyridin-3-yl]methyl}-3,8-diazabicyclo[3.2.1]oct-8-yl)(piperidin-1-yl)methanone], the IC50 in assay [1] was 2.9 nM; in assay [2], 270 nM.

On to `CN(C)C(=O)N1C2CCC1CN(Cc1c(-c3ccc(Cl)cc3)nc3ccccn13)C2` [Example 180, 3-{[2-(4-Chlorophenyl)imidazo[1,2-a]pyridin-3-yl]methyl}-N,N-dimethyl-3,8-diazabicyclo[3.2.1]octane-8-carboxamide], for which the 50% inhibitory concentration (IC50) in assay [1] was 23 nM; in assay [2] it was 220 nM.

For `CCN(C(=O)N1C2CCC1CN(Cc1c(-c3ccc(Cl)cc3)nc3ccccn13)C2)c1ccc(C)cc1` [Example 181, 3-{[2-(4-Chlorophenyl)imidazo[1,2-a]pyridin-3-yl]methyl}-N-ethyl-N-(4-methylphenyl)-3,8-diazabicyclo[3.2.1]octane-8-carboxamide], the results for the IC50 in assay [1] and in assay [2] were 1000 nM and 4100 nM, respectively.

Consider `CC(C)N(C(=O)N1C2CCC1CN(Cc1c(-c3ccc(Cl)cc3)nc3ccccn13)C2)c1ccc(Cl)cc1` [Example 182, N-(4-Chlorophenyl)-3-{[2-(4-chlorophenyl)imidazo[1,2-a]pyridin-3-yl]methyl}-N-isopropyl-3,8-diazabicyclo[3.2.1]octane-8-carboxamide], for which the IC50 in assay [1] stood at 1000 nM; in assay [2], 6100 nM.

Turning to `O=C(N1CCSCC1)N1C2CCC1CN(Cc1c(-c3ccc(Cl)cc3)nc3ccccn13)C2` [Example 183, (3-{[2-(4-Chlorophenyl)imidazo[1,2-a]pyridin-3-yl]methyl}-3,8-diazabicyclo[3.2.1]oct-8-yl)(thiomorpholin-4-yl)methanone], the IC50 in assay [1] was 26 nM; in assay [2], 450 nM.

For `COC(=O)N1C2CCC1CN(Cc1c(-c3ccc(Cl)cc3)nc3ccccn13)C2` [Example 184, Methyl 3-{[2-(4-chlorophenyl)imidazo[1,2-a]pyridin-3-yl]methyl}-3,8-diazabicyclo[3.2.1]octane-8-carboxylate], the IC50 stood at 72 nM in assay [1] and 2900 nM in assay [2].

For `O=C(OC1CCCC1)N1C2CCC1CN(Cc1c(-c3ccc(Cl)cc3)nc3ccccn13)C2` [Example 186, Cyclopentyl 3-{[2-(4-chlorophenyl)imidazo[1,2-a]pyridin-3-yl]methyl}-3,8-diazabicyclo[3.2.1]octane-8-carboxylate], the IC50 amounted to 44 nM in assay [1] and 730 nM in assay [2].

In the case of `O=C(OC1CCCCC1)N1C2CCC1CN(Cc1c(-c3ccc(Cl)cc3)nc3ccccn13)C2` [Example 187, Cyclohexyl 3-{[2-(4-chlorophenyl)imidazo[1,2-a]pyridin-3-yl]methyl}-3,8-diazabicyclo[3.2.1]octane-8-carboxylate], the IC50 in assay [1] was determined as 200 nM; in assay [2], 3800 nM.

On to `CCN(CC)C(=O)N1C2COCC1CN(Cc1c(-c3ccc(Cl)cc3)nc3ccccn13)C2` [Example 188, 7-{[2-(4-Chlorophenyl)imidazo[1,2-a]pyridin-3-yl]methyl}-N,N-diethyl-3-oxa-7,9-diazabicyclo[3.3.1]nonane-9-carboxamide], for which the figures for the IC50 in assay [1] and in assay [2] were 5.9 nM and 60 nM, respectively.

As to `O=C(N1CCOCC1)N1C2COCC1CN(Cc1c(-c3ccc(Cl)cc3)nc3ccccn13)C2` [Example 189, (7-{[2-(4-Chlorophenyl)imidazo[1,2-a]pyridin-3-yl]methyl}-3-oxa-7,9-diazabicyclo[3.3.1]non-9-yl)(morpholin-4-yl)methanone], the figures for the IC50 in assay [1] and in assay [2] were 520 nM and 8300 nM, respectively.

With `CC(C)N(C(=O)N1C2COCC1CN(Cc1c(-c3ccc(Cl)cc3)nc3ccccn13)C2)C(C)C` [Example 190, 7-{[2-(4-Chlorophenyl)imidazo[1,2-a]pyridin-3-yl]methyl}-N,N-diisopropyl-3-oxa-7,9-diazabicyclo[3.3.1]nonane-9-carboxamide], the 50% inhibitory concentration (IC50) was 19 nM in assay [1] and 170 nM in assay [2].
